Experimental data published in PubChem BioAssay (NCI).
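Cells were grown in 96-well plates and exposed to each compound for 48 hours at five concentrations; endpoints were interpolated linearly between bracketing concentrations, or set to the highest concentration if not reached. GI50 is the concentration that inhibits growth by half. The concentration for full growth arrest is given as TGI.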

Experiments:
Assay in all cases: growth of human tumour cells (NCI), 48 h
HT29 colon = test system: HT29 colon
NCI-H23 lung = test system: NCI-H23 lung
ACHN renal = test system: ACHN renal
TK-10 renal = test system: TK-10 renal
IGROV1 ovarian = test system: IGROV1 ovarian
UACC-62 melanoma = test system: UACC-62 melanoma
U251 CNS = test system: U251 CNS
NCI-H460 lung = test system: NCI-H460 lung
NCI-H522 lung = test system: NCI-H522 lung
COLO 205 colon = test system: COLO 205 colon
CCRF-CEM leukemia = test system: CCRF-CEM leukemia
HCT-15 colon = test system: HCT-15 colon
786-0 renal = test system: 786-0 renal
OVCAR-8 ovarian = test system: OVCAR-8 ovarian
M14 melanoma = test system: M14 melanoma
HOP-92 NSCLC = test system: HOP-92 NSCLC
HOP-62 NSCLC = test system: HOP-62 NSCLC
SN12C renal = test system: SN12C renal
MCF7 breast = test system: MCF7 breast
OVCAR-4 ovarian = test system: OVCAR-4 ovarian
SNB-19 CNS = test system: SNB-19 CNS
NCI/ADR-RES ovarian = test system: NCI/ADR-RES ovarian
SK-OV-3 ovarian = test system: SK-OV-3 ovarian
SNB-75 CNS = test system: SNB-75 CNS
HCC-2998 colon = test system: HCC-2998 colon
SF-539 CNS = test system: SF-539 CNS
SW-620 colon = test system: SW-620 colon
PC-3 prostate = test system: PC-3 prostate
EKVX NSCLC = test system: EKVX NSCLC
MOLT-4 leukemia = test system: MOLT-4 leukemia
OVCAR-5 ovarian = test system: OVCAR-5 ovarian
BT-549 breast = test system: BT-549 breast
A549 NSCLC = test system: A549 NSCLC
SK-MEL-28 melanoma = test system: SK-MEL-28 melanoma
KM12 colon = test system: KM12 colon
MDA-MB-231 breast = test system: MDA-MB-231 breast
SF-268 CNS = test system: SF-268 CNS
SK-MEL-5 melanoma = test system: SK-MEL-5 melanoma
NCI-H226 lung = test system: NCI-H226 lung
A498 renal = test system: A498 renal
LOX IMVI melanoma = test system: LOX IMVI melanoma
K-562 leukemia = test system: K-562 leukemia
CAKI-1 renal = test system: CAKI-1 renal
SR leukemia = test system: SR leukemia
UO-31 renal = test system: UO-31 renal
RXF 393 renal = test system: RXF 393 renal
OVCAR-3 ovarian = test system: OVCAR-3 ovarian
HL-60(TB) leukemia = test system: HL-60(TB) leukemia
RPMI-8226 leukemia = test system: RPMI-8226 leukemia
HS 578T breast = test system: HS 578T breast
SF-295 CNS = test system: SF-295 CNS
DU-145 prostate = test system: DU-145 prostate
SK-MEL-2 melanoma = test system: SK-MEL-2 melanoma
MALME-3M melanoma = test system: MALME-3M melanoma
UACC-257 melanoma = test system: UACC-257 melanoma
MDA-MB-435 = test system: MDA-MB-435
T-47D breast = test system: T-47D breast

COc1cccc(-c2cc(=O)c3cc(N)ccc3[nH]2)c1
TGI (HT29 colon): 18 µM
TGI (NCI-H23 lung): > 100 µM
TGI (ACHN renal): > 100 µM
TGI (TK-10 renal): > 100 µM
TGI (IGROV1 ovarian): > 100 µM
TGI (UACC-62 melanoma): > 100 µM
TGI (U251 CNS): > 100 µM
TGI (NCI-H460 lung): > 100 µM
TGI (NCI-H522 lung): 7.56 µM
TGI (COLO 205 colon): > 100 µM
TGI (CCRF-CEM leukemia): > 100 µM
TGI (HCT-15 colon): > 100 µM
TGI (786-0 renal): > 100 µM
TGI (OVCAR-8 ovarian): > 100 µM
TGI (M14 melanoma): > 100 µM
TGI (HOP-92 NSCLC): 59.7 µM
TGI (HOP-62 NSCLC): > 100 µM
TGI (SN12C renal): > 100 µM
TGI (MCF7 breast): > 100 µM
GI50 (OVCAR-4 ovarian): 82.3 µM
TGI (OVCAR-4 ovarian): > 100 µM
TGI (SNB-19 CNS): > 100 µM
TGI (NCI/ADR-RES ovarian): 11.9 µM
TGI (SK-OV-3 ovarian): 6.79 µM
TGI (SNB-75 CNS): > 100 µM
TGI (HCC-2998 colon): 48.6 µM
TGI (SF-539 CNS): 5.2 µM
TGI (SW-620 colon): > 100 µM
TGI (PC-3 prostate): > 100 µM
TGI (EKVX NSCLC): > 100 µM
TGI (MOLT-4 leukemia): > 100 µM
TGI (OVCAR-5 ovarian): > 100 µM
TGI (BT-549 breast): > 100 µM
TGI (A549 NSCLC): > 100 µM
TGI (SK-MEL-28 melanoma): > 100 µM
TGI (KM12 colon): > 100 µM
TGI (MDA-MB-231 breast): > 100 µM

O=C1CCCC2=C1CC1=C(CCCC1=O)N2c1cccc2ccccc12
TGI (SF-268 CNS): > 100 µM
TGI (HT29 colon): > 100 µM
TGI (NCI-H23 lung): > 100 µM
TGI (ACHN renal): > 100 µM
TGI (TK-10 renal): > 100 µM
TGI (SK-MEL-5 melanoma): > 100 µM
TGI (IGROV1 ovarian): > 100 µM
TGI (UACC-62 melanoma): > 100 µM
TGI (U251 CNS): > 100 µM
TGI (NCI-H460 lung): > 100 µM
TGI (NCI-H226 lung): > 100 µM
TGI (A498 renal): > 100 µM
TGI (CCRF-CEM leukemia): > 100 µM
TGI (HCT-15 colon): > 100 µM
TGI (786-0 renal): > 100 µM
TGI (OVCAR-8 ovarian): > 100 µM
TGI (M14 melanoma): > 100 µM
TGI (HOP-92 NSCLC): > 100 µM
TGI (SN12C renal): > 100 µM
TGI (LOX IMVI melanoma): > 100 µM
TGI (MCF7 breast): > 100 µM
TGI (OVCAR-4 ovarian): > 100 µM
TGI (K-562 leukemia): > 100 µM
TGI (SNB-19 CNS): > 100 µM
TGI (NCI/ADR-RES ovarian): > 100 µM
TGI (CAKI-1 renal): > 100 µM
TGI (SK-OV-3 ovarian): > 100 µM
TGI (SR leukemia): > 100 µM
TGI (SNB-75 CNS): > 100 µM
TGI (HCC-2998 colon): > 100 µM
TGI (SF-539 CNS): > 100 µM
TGI (UO-31 renal): > 100 µM
TGI (SW-620 colon): > 100 µM
TGI (PC-3 prostate): > 100 µM
TGI (EKVX NSCLC): > 100 µM
TGI (RXF 393 renal): 54.4 µM
TGI (OVCAR-3 ovarian): > 100 µM
TGI (MOLT-4 leukemia): > 100 µM
TGI (OVCAR-5 ovarian): > 100 µM
TGI (BT-549 breast): > 100 µM
TGI (HL-60(TB) leukemia): > 100 µM
TGI (A549 NSCLC): > 100 µM
TGI (RPMI-8226 leukemia): > 100 µM
TGI (HS 578T breast): > 100 µM
TGI (SK-MEL-28 melanoma): > 100 µM
TGI (KM12 colon): > 100 µM

Fc1ccc(-c2ccc(-c3nnc(-c4cc(F)c(Cl)cc4Cl)o3)o2)cc1Cl
GI50 (SF-268 CNS): 33 µM
TGI (SF-268 CNS): > 100 µM
GI50 (SF-295 CNS): 30.2 µM
TGI (SF-295 CNS): > 100 µM
GI50 (HT29 colon): 22.7 µM
TGI (HT29 colon): 50.9 µM
GI50 (DU-145 prostate): 29.5 µM
TGI (DU-145 prostate): > 100 µM
GI50 (NCI-H23 lung): 47.9 µM
TGI (NCI-H23 lung): > 100 µM
GI50 (ACHN renal): 35.3 µM
TGI (ACHN renal): > 100 µM
GI50 (TK-10 renal): 27.2 µM
TGI (TK-10 renal): > 100 µM
GI50 (SK-MEL-5 melanoma): 17 µM
TGI (SK-MEL-5 melanoma): 31.9 µM
GI50 (IGROV1 ovarian): 30.1 µM
TGI (IGROV1 ovarian): > 100 µM
GI50 (UACC-62 melanoma): 17.6 µM
TGI (UACC-62 melanoma): 51.2 µM
GI50 (U251 CNS): 32.8 µM
TGI (U251 CNS): > 100 µM
GI50 (NCI-H460 lung): 29.7 µM
TGI (NCI-H460 lung): > 100 µM
GI50 (NCI-H226 lung): 20.9 µM
TGI (NCI-H226 lung): 76.1 µM
GI50 (NCI-H522 lung): 38.7 µM
TGI (NCI-H522 lung): > 100 µM
GI50 (COLO 205 colon): 18.8 µM
TGI (COLO 205 colon): 42.8 µM
GI50 (CCRF-CEM leukemia): 35 µM
TGI (CCRF-CEM leukemia): > 100 µM
GI50 (HCT-15 colon): 27.6 µM
TGI (HCT-15 colon): > 100 µM
GI50 (OVCAR-8 ovarian): 31.9 µM
TGI (OVCAR-8 ovarian): > 100 µM
GI50 (HOP-92 NSCLC): 38.5 µM
TGI (HOP-92 NSCLC): > 100 µM
GI50 (SK-MEL-2 melanoma): 54.8 µM
TGI (SK-MEL-2 melanoma): > 100 µM
GI50 (SN12C renal): 33.3 µM
TGI (SN12C renal): > 100 µM
GI50 (LOX IMVI melanoma): 20.8 µM
TGI (LOX IMVI melanoma): 48.9 µM
GI50 (MCF7 breast): 26.8 µM
TGI (MCF7 breast): > 100 µM
GI50 (OVCAR-4 ovarian): 50.9 µM
TGI (OVCAR-4 ovarian): > 100 µM
GI50 (K-562 leukemia): 48.5 µM
TGI (K-562 leukemia): > 100 µM
GI50 (MALME-3M melanoma): 18.8 µM
TGI (MALME-3M melanoma): 59 µM
GI50 (SNB-19 CNS): 25.4 µM
TGI (SNB-19 CNS): > 100 µM
GI50 (UACC-257 melanoma): 46.1 µM
TGI (UACC-257 melanoma): > 100 µM
GI50 (NCI/ADR-RES ovarian): 35.8 µM
TGI (NCI/ADR-RES ovarian): > 100 µM
GI50 (CAKI-1 renal): 33.7 µM
TGI (CAKI-1 renal): 89.9 µM
GI50 (SK-OV-3 ovarian): 41.2 µM
TGI (SK-OV-3 ovarian): > 100 µM
GI50 (SR leukemia): 68.5 µM
TGI (SR leukemia): > 100 µM
GI50 (SNB-75 CNS): 30.6 µM
TGI (SNB-75 CNS): > 100 µM
GI50 (HCC-2998 colon): 41.3 µM
TGI (HCC-2998 colon): > 100 µM
GI50 (SF-539 CNS): 29.4 µM
TGI (SF-539 CNS): 85.7 µM
GI50 (UO-31 renal): 34.7 µM
TGI (UO-31 renal): > 100 µM
GI50 (SW-620 colon): 31.9 µM
TGI (SW-620 colon): 98.3 µM
GI50 (PC-3 prostate): 36.9 µM
TGI (PC-3 prostate): > 100 µM
GI50 (EKVX NSCLC): 26.5 µM
TGI (EKVX NSCLC): > 100 µM
GI50 (RXF 393 renal): 48 µM
TGI (RXF 393 renal): > 100 µM
GI50 (OVCAR-3 ovarian): 21.9 µM
TGI (OVCAR-3 ovarian): 72.5 µM
GI50 (MDA-MB-435): 34.6 µM
TGI (MDA-MB-435): > 100 µM
GI50 (MOLT-4 leukemia): 24.2 µM
TGI (MOLT-4 leukemia): 85.2 µM
GI50 (OVCAR-5 ovarian): > 100 µM
TGI (OVCAR-5 ovarian): > 100 µM
GI50 (HL-60(TB) leukemia): > 100 µM
TGI (HL-60(TB) leukemia): > 100 µM
GI50 (A549 NSCLC): 37.3 µM
TGI (A549 NSCLC): > 100 µM
GI50 (RPMI-8226 leukemia): 26.4 µM
TGI (RPMI-8226 leukemia): 72.9 µM
GI50 (HS 578T breast): 22.3 µM
TGI (HS 578T breast): 67.6 µM
GI50 (SK-MEL-28 melanoma): 24.9 µM
TGI (SK-MEL-28 melanoma): 68.2 µM
GI50 (T-47D breast): 13.7 µM
TGI (T-47D breast): 45.1 µM
GI50 (KM12 colon): 26.1 µM
TGI (KM12 colon): 74.1 µM
GI50 (MDA-MB-231 breast): 29.7 µM
TGI (MDA-MB-231 breast): > 100 µM
